Laboratory results from publication PMC12647918 (Nature Communications, 2025).

Experiments:
tRNA modifications = experiment: Measurement of tRNA modification levels by LC-MS/MS; format: cell-based, Human; details: K562 cells, 50 μM 5-FU
[1] = tested on: RNA post-transcriptional modification enzymes (PUS1, PUS3, PUS10, TRUB1, TRUB2, DUS3L, TRMT2A, EMG1); experiment: Time-resolved SICFA, 5-FU in K562 cells; format: cell-based, Human; details: 50 µM 5-FU, from 4 h, further enhanced with prolonged treatment
TYMS [2] = biological target: T1, TYMS (Homo sapiens, UniProt P04818); experiment: Time-resolved SICFA, 5-FU in K562 cells; details: 50 µM 5-FU, 30 min, 10% fixative
[3] = tested on: C-1-tetrahydrofolate synthase (MTHFD1); experiment: SICFA of MTX-treated living K562 cells; format: cell-based, Human; details: 2 µM MTX, 30 min
[4] = tested on: Methionine synthase (MTR); experiment: SICFA of MTX-treated living K562 cells; format: cell-based, Human; details: 2 µM MTX, 30 min
HDAC3 = HDAC3 (Homo sapiens, UniProt O15379); experiment: SICFA and PISA10 stability shift, Panobinostat; details: SICFA versus PISA10
HDAC2 = HDAC2 (Homo sapiens, UniProt Q92769); details: both methods (SICFA and PISA10)
HDAC8 = biological target: T2, HDAC8 (Homo sapiens, UniProt Q9BY41); experiment: SICFA and PISA10 stability shift, Panobinostat; details: SICFA versus PISA10
T2 sequence (Q9BY41 1-377): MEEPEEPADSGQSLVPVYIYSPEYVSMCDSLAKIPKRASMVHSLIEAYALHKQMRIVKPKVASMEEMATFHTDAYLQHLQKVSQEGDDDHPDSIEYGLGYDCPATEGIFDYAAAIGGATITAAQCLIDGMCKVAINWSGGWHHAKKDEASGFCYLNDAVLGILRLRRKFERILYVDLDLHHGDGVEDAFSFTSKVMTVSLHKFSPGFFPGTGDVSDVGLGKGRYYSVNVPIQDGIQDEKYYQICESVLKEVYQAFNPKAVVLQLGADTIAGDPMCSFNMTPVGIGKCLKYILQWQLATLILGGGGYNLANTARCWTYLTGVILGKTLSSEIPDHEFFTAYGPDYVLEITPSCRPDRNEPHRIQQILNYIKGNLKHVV

HDAC6 = biological target: T3, HDAC6 (Homo sapiens, UniProt Q9UBN7); experiment: SICFA and PISA10 stability shift, Panobinostat; details: both methods (SICFA and PISA10)
T3 sequence (Q9UBN7 1-1215): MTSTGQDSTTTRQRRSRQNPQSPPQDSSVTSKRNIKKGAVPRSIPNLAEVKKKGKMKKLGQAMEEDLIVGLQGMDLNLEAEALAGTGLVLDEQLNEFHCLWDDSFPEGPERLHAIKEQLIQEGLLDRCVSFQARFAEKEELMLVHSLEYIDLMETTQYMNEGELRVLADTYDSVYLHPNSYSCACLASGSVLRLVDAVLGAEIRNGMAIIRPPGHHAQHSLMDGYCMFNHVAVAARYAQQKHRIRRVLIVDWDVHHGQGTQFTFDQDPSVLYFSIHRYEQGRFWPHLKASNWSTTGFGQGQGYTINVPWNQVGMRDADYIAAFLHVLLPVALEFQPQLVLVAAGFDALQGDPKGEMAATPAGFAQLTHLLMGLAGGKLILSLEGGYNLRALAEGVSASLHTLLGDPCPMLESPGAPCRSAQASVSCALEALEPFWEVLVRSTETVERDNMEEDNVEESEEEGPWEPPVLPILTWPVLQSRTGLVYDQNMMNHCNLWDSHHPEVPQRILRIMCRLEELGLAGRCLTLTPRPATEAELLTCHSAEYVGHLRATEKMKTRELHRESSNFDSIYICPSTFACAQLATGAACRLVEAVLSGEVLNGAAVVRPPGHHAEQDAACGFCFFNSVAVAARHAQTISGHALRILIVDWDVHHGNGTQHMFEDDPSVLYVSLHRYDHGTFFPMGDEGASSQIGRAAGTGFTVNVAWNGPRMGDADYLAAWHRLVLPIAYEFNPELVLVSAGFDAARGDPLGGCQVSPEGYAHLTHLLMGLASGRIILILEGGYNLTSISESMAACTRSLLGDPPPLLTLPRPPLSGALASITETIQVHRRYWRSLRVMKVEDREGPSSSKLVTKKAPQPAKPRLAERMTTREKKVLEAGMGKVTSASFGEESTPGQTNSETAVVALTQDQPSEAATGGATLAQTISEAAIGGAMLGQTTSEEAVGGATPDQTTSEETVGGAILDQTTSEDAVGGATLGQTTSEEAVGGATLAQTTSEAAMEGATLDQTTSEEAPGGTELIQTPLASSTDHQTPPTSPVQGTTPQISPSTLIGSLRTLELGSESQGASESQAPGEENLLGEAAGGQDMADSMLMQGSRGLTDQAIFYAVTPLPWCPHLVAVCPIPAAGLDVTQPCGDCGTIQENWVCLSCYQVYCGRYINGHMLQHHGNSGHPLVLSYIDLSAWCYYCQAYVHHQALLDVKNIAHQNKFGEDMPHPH

RB1 = experiment: SICFA stability shift, SNS-032
YES1 = details: 1 µM dasatinib, cell lysate, kinobeads ref 26; cited from earlier work
LYN = details: 1 µM dasatinib, cell lysate, kinobeads ref 26; cited from earlier work
RIPK2 = details: 1 µM dasatinib, cell lysate, kinobeads ref 26; cited from earlier work
CDKN1C = experiment: SICFA target identification, dasatinib; format: cell-based, Human; details: dasatinib 1 μM, 30 min
TYMS [5] = biological target: T1, TYMS; details: raltitrexed 1 µM, 30 min

T1 sequence (P04818 2-313 limits assumed): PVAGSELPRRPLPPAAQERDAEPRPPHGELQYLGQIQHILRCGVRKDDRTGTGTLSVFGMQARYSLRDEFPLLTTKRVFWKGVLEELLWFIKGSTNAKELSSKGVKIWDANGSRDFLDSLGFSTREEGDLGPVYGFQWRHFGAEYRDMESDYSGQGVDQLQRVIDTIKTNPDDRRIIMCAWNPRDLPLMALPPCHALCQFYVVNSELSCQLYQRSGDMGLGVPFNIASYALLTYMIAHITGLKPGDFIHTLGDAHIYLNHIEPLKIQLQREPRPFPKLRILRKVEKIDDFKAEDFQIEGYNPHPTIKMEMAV
HDAC3, sequence (O15379 whole entry): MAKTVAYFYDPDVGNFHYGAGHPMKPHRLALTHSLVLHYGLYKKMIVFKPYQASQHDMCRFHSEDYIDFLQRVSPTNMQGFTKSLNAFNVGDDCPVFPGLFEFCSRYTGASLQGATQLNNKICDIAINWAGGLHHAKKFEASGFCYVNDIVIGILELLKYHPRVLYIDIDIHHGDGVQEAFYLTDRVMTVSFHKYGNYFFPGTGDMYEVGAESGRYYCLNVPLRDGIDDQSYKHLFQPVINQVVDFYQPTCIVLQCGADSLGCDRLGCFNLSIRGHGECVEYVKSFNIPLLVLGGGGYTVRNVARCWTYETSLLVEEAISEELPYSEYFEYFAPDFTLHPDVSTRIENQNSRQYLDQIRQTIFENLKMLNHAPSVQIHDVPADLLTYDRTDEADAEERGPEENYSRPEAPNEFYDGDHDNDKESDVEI
HDAC3, sequence (Q9Y618 389-480 partner limits assumed): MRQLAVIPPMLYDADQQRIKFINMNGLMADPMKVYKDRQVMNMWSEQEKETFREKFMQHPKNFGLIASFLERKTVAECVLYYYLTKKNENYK
HDAC2, sequence (Q92769 whole entry): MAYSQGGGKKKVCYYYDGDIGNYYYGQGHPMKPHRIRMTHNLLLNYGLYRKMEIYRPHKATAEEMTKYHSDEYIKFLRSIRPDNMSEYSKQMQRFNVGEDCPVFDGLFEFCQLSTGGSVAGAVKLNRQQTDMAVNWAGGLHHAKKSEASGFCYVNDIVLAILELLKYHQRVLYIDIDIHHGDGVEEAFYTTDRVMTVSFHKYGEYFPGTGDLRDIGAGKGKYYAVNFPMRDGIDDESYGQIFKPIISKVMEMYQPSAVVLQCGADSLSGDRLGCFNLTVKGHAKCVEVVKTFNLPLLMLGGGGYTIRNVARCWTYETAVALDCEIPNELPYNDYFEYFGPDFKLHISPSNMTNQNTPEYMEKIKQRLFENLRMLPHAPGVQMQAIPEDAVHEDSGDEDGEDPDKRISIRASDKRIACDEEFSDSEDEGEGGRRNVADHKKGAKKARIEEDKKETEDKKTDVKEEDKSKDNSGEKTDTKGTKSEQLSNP

O=c1[nH]cc(F)c(=O)[nH]1 [5-FU, 5-Fluorouracil]
changes in RNA (tRNA) modifications (tRNA modifications; 4 h): no significant changes
tRNA modifications Ψ, ncm5U, hm5C, m5U (tRNA modifications; 24 h): significantly downregulated
stability of RNA post-transcriptional modification enzymes [1]: significantly increased
TYMS stability, log2FC (TYMS [2]): 2.11

CN(Cc1cnc2nc(N)nc(N)c2n1)c1ccc(C(=O)N[C@@H](CCC(=O)O)C(=O)O)cc1 [MTX, Methotrexate]
MTHFD1 stability [3]: increased stability
MTR stability, log2FC [4]: −0.38

Cc1[nH]c2ccccc2c1CCNCc1ccc(/C=C/C(=O)NO)cc1 [Panobinostat]
HDAC3 stability (HDAC3): opposite trends
HDAC2 stability (HDAC2): consistent stabilization
HDAC8 target identification (HDAC8): uniquely identified by SICFA
HDAC6 stability (HDAC6): consistent stabilization

CC(C)(C)c1cnc(CSc2cnc(NC(=O)C3CCNCC3)s2)o1 [SNS-032]
stability shift of substrate RB1, log2FC (RB1): > 0.5

Cc1nc(Nc2ncc(C(=O)Nc3c(C)cccc3Cl)s2)cc(N2CCN(CCO)CC2)n1 [dasatinib, Dasatinib]
reduction in binding (YES1): more than 50%
reduction in binding (LYN): more than 50%
reduction in binding (RIPK2): more than 50%
stability of LYN's interacting partner CDKN1C (CDKN1C): reduced the stability

Cc1nc2ccc(CN(C)c3ccc(C(=O)N[C@@H](CCC(=O)O)C(=O)O)s3)cc2c(=O)[nH]1 [raltitrexed, Raltitrexed]
soluble TYMS content vs control (western blot) (TYMS [5]; Jurkat cells, 10% and 12% fixative): markedly higher
target identification by SICFA LC-MS/MS (TYMS [5]; 10% fixative, pool of 5,534 proteins): leading candidate target
